Measurements as given in US10421774B2 (priority 2016, dated 2019).

Key:
Experiment in all cases: microbe, parasite or virus in culture
Assay type in all cases: cell-based, HIV-1
[1] = system: NLRepRlucP373S recombinant wild type (WT) virus; conditions: Human immunodeficiency virus 1, MT2, read-out: WT EC50
Description: (§1) Cells. MT-2 cells and 293T cells were obtained from the NIH AIDS Research and Reference Reagent Program. Cell lines were sub-cultured twice a week in either RPMI 1640 (MT-2) or DMEM (293T, HeLa) media supplemented with 10% heat inactivated fetal bovine serum (FBS), 100 units/mL of penicillin G and 100 μg/mL of streptomycin. The DMEM medium was additionally supplemented with 10 mM HEPES buffer, pH 7.55, 2 mM L-glutamine and 0.25 μg/mL of amphotericin B.
(§2) Viruses. NLRepRluc virus contains the Renilla luciferase marker in place of the viral nef gene. The proviral plasmid pNLRepRluc was constructed at Bristol-Myers Squibb, starting from a proviral NL4-3 clone (B subtype) that was obtained from the NIH AIDS Research and Reference Reagent Program. The parental recombinant wild type (WT) virus (NLRepRlucP373S) was derived from NLRepRluc and contains the additional substitution of P373 for serine in Gag (within the SP1 spacer), the most common 373 variation in subtype B. Other recombinant viruses (A364V, V370A/ΔT371 and the “T3325 triple” (T332S/V362I+HIV-1 protease R41G)) were generated by site-directed mutagenesis of plasmid pNLRepRlucP373S to introduce those amino acid substitutions in Gag and protease. Recombinant virus DNA was then used to generate virus stocks by transfection of 293T cells (Lipofectamine PLUS kit, Invitrogen). Titers of virus stocks were determined using a luciferase assay (Dual-Luciferase® Reporter Assay System, Promega, Milwaukee, Wis., USA) endpoint.
(§3) Multiple cycle drug susceptibility assay. Pellets of MT-2 cells were infected with NLRepRlucP373S Gag site-directed viruses, where initial inocula of the reporter strains were normalized using equivalent endpoint luciferase activity signals. Such cell-virus mixtures were resuspended in medium, incubated for 1-hour at 37° C./CO2, and added to compound containing 96-well plates at a final cell density of 10,000 cells per well. The test compounds were 3-fold serially diluted in 100% DMSO, and assayed at a final DMSO concentration of 1%. After 4-5 day incubation at 37° C./CO2, virus yields were determined by Renilla luciferase activity (Dual-Luciferase® Reporter Assay System, Promega). The endpoint luminescence was detected on a Wallac Trilux (PerkinElmer).
(§4) The 50% inhibitory concentrations (EC50S) were calculated by using the exponential form of the median effect equation where Percent Inhibition=1/[1+(EC50/drug conc.^m], where m is a parameter that reflects the slope of the concentration-response curve. Background was taken as the residual signal observed upon inhibition at the highest concentration of a control protease inhibitor, NFV (3 μM).
as §4, with “The 90%” for “The 50%”, “concentrations (EC90S)” for “concentrations (EC50S)”, “where ECF=[(F/(100−F)]^1/H·EC50,” for “where Percent Inhibition=1/[1+(EC50/drug conc.^m],”, “where H” for “where m”

[2] = system: A364V site directed mutant virus; conditions: Human immunodeficiency virus 1, MT2, read-out: A364V EC50
Description: as §1, §2, §3
(§5) HIV-1 NL4-3 expressing Renilla luciferase gene was converted to the gag V370A/ΔT371 virus by site directed mutagenesis. A364V is a site directed mutant.
(§6) All three recombinant viruses were used as described above in the HIV cell culture assay for the NL4-3 virus.

gag V370A/ΔT371 virus = conditions: Human immunodeficiency virus 1, MT2, read-out: V370A/ΔT371 EC50
Description: as §1, §2, §3, §5, §6

[3] = system: T332S/V362I/Pr R41G virus; conditions: Human immunodeficiency virus 1, MT2, read-out: T332S/V362I/pr41G EC50
Description: as §1, §2, §3
T332sN362I/Pr R41G (N14.3, B Clade) virus′ was obtained as follows: Selection for resistance of HIV-1 strain […] virus with the HIV maturation inhibitor (MI) compound
At passage 8 virus was harvested and sequenced.
as §6

Structure (SMILES)	EC50 [1] [nM]	EC50 [2] [nM]	EC50 (gag V370A/ΔT371 virus) [nM]	EC50 [3] [nM]
C=C(C)[C@@H]1CC[C@]2(NCCN3CCS(=O)(=O)CC3)CC[C@]3(C)[C@H](CC[C@@H]4[C@@]5(C)CC=C(C6=CCC(COc7nnnn7C)(C(=O)O)CC6)C(C)(C)[C@@H]5CC[C@]43C)[C@@H]12 (some centres unmarked) [Example 13]	2	24	7	7
C=C(C)[C@@H]1CC[C@]2(NCCN3CCS(=O)(=O)CC3)CC[C@]3(C)[C@H](CC[C@@H]4[C@@]5(C)CC=C(C6=CCC(COc7nsc(=O)[nH]7)(C(=O)O)CC6)C(C)(C)[C@@H]5CC[C@]43C)[C@@H]12 (stereo partly drawn) [Example 14, 4-((1R,3aS,5aR,5bR,7aR,11aS,11bR,13aR,13bR)-3a-((2-(1,1-dioxidothiomorpholino)ethyl)amino)-5a,5b,8,8,11a-pentamethyl-1-(prop-1-en-2-yl)-2,3,3a,4,5,5a,5b,6,7,7a,8,11,11a,11 b,12,13,13a,13b-octadecahydro-1H-cyclopenta[a]chrysen-9-yl)-1-(((5-oxo-4,5-dihydro-1,2,4-thiadiazol-3-yl)oxy)methyl)cyclohex-3-ene-1-carboxylic acid]	27	> 50	> 50	> 50
C=C(C)[C@@H]1CC[C@]2(NCCN3CCS(=O)(=O)CC3)CC[C@]3(C)[C@H](CC[C@@H]4[C@@]5(C)CC=C(C6=CCC(COc7nccs7)(C(=O)O)CC6)C(C)(C)[C@@H]5CC[C@]43C)[C@@H]12 (stereo partly drawn) [Example 15, 4-((1R,3aS,5aR,5bR,7aR,11aS,11bR,13aR,13bR)-3a-((2-(1,1-dioxidothiomorpholino)ethyl)amino)-5a,5b,8,8,11a-pentamethyl-1-(prop-1-en-2-yl)-2,3,3a,4,5,5a,5b,6,7,7a,8,11,11a,11b,12,13,13a,13b-octadecahydro-1H-cyclopenta[a]chrysen-9-yl)-1-((thiazol-2-yloxy)methyl)cyclohex-3-ene-1-carboxylic acid]	4	2380	390	390
C=C(C)[C@@H]1CC[C@]2(NCCN3CCS(=O)(=O)CC3)CC[C@]3(C)[C@H](CC[C@@H]4[C@@]5(C)CC=C(C6=CCC(COc7cnnn7-c7ccccc7)(C(=O)O)CC6)C(C)(C)[C@@H]5CC[C@]43C)[C@@H]12 (some centres unmarked) [Example 16]	5	32	30	30
C=C(C)[C@@H]1CC[C@]2(NCCN3CCS(=O)(=O)CC3)CC[C@]3(C)[C@H](CC[C@@H]4[C@@]5(C)CC=C(C6=CCC(COc7cnnn7C(C)C)(C(=O)O)CC6)C(C)(C)[C@@H]5CC[C@]43C)[C@@H]12 (stereo partly drawn) [Example 17, 4-((1R,3aS,5aR,5bR,7aR,11aS,11bR,13aR,13bR)-3a-((2-(1,1-dioxidothiomorpholino)ethyl)amino)-5a,5b,8,8,11a-pentamethyl-1-(prop-1-en-2-yl)-2,3,3a,4,5,5a,5b,6,7,7a,8,11,11a,11b,12,13,13a,13b-octadecahydro-1H-cyclopenta[a]chrysen-9-yl)-1-(((1-isopropyl-1H-1,2,3-triazol-5-yl)oxy)methyl)cyclohex-3-ene-1-carboxylic acid]	3	> 50	15	15
C=C(C)c1cc(OCC2(C(=O)O)CC=C(C3=CC[C@]4(C)[C@H]5CC[C@@H]6[C@H]7[C@H](C(=C)C)CC[C@]7(NCCN7CCS(=O)(=O)CC7)CC[C@@]6(C)[C@]5(C)CC[C@H]4C3(C)C)CC2)ns1 (some centres unmarked) [Example 18]	2	11	< 50	14
C=C(C)[C@@H]1CC[C@]2(NCCN3CCS(=O)(=O)CC3)CC[C@]3(C)[C@H](CC[C@@H]4[C@@]5(C)CC=C(C6=CCC(COc7cccnn7)(C(=O)O)CC6)C(C)(C)[C@@H]5CC[C@]43C)[C@@H]12 (stereo partly drawn) [Example 19, 4-((1R,3aS,5aR,5bR,7aR,11aS,11bR,13aR,13bR)-3a-((2-(1,1-dioxidothiomorpholino)ethyl)amino)-5a,5b,8,8,11a-pentamethyl-1-(prop-1-en-2-yl)-2,3,3a,4,5,5a,5b,6,7,7a,8,11,11a,11 b,12,13,13a,13b-octadecahydro-1H-cyclopenta[a]chrysen-9-yl)-1-((pyridazin-3-yloxy)methyl)cyclohex-3-ene-1-carboxylic acid]	3	36	47	47
C=C(C)[C@@H]1CC[C@]2(NCCN3CCS(=O)(=O)CC3)CC[C@]3(C)[C@H](CC[C@@H]4[C@@]5(C)CC=C(C6=CC[C@](COc7ccccn7)(C(=O)O)CC6)C(C)(C)[C@@H]5CC[C@]43C)[C@@H]12 [Example 20, (R)-4-((1R,3aS,5aR,5bR,7aR,11aS,11bR,13aR,13bR)-3a-((2-(1,1-dioxidothiomorpholino)ethyl)amino)-5a,5b,8,8,11a-pentamethyl-1-(prop-1-en-2-yl)-2,3,3a,4,5,5a,5b,6,7,7a,8,11,11a,11b,12,13,13a,13b-octadecahydro-1H-cyclopenta[a]chrysen-9-yl)-1-((pyridin-2-yloxy)methyl)cyclohex-3-ene-1-carboxylic acid]	< 50	< 50	< 50	< 50
C=C(C)[C@@H]1CC[C@]2(NCCN3CCS(=O)(=O)CC3)CC[C@]3(C)[C@H](CC[C@@H]4[C@@]5(C)CC=C(C6=CC[C@](COc7ccncn7)(C(=O)O)CC6)C(C)(C)[C@@H]5CC[C@]43C)[C@@H]12 [Example 21]	< 50	< 50	> 50	> 50
C=C(C)[C@@H]1CC[C@]2(NCCN3CCS(=O)(=O)CC3)CC[C@]3(C)[C@H](CC[C@@H]4[C@@]5(C)CC=C(C6=CC[C@](COc7ncccc7Cl)(C(=O)O)CC6)C(C)(C)[C@@H]5CC[C@]43C)[C@@H]12 [Example 22]	5	8	15	15
C=C(C)[C@@H]1CC[C@]2(NCCN3CCS(=O)(=O)CC3)CC[C@]3(C)[C@H](CC[C@@H]4[C@@]5(C)CC=C(C6=CC[C@](COc7ncccc7C#N)(C(=O)O)CC6)C(C)(C)[C@@H]5CC[C@]43C)[C@@H]12 [Example 23, (R)-1-(((3-cyanopyridin-2-yl)oxy)methyl)-4-((1R,3aS,5aR,5bR,7aR,11aS,11bR,13aR,13bR)-3a-((2-(1,1-dioxidothiomorpholino)ethyl)amino)-5a,5b,8,8,11a-pentamethyl-1-(prop-1-en-2-yl)-2,3,3a,4,5,5a,5b,6,7,7a,8,11,11a,11b,12,13,13a,13b-octadecahydro-1H-cyclopenta[a]chrysen-9-yl)cyclohex-3-ene-1-carboxylic acid]	2	> 50	< 50	6
